{
  "source": "patent US20260337187A1",
  "about": "“COMPOUNDS FOR TREATMENT OF INFLAMMATORY PROCESSES” (THORNE LIMITED, priority 2022, published 2026)",
  "format_in_all_cases": "cell-based",
  "key": {"[1]": {"system": "primary human B lymphocytes", "test": "B lymphocyte cytokine release (cytokine array)", "conditions": "CD40L and IL4; FIG. 9", "description": "The % reduction compared to the stimulated control is shown; average of 2 experiments.\nB lymphocyte cytokine release: Primary human B lymphocytes isolated from fresh buffy coat were stimulated at a cell density of 5×10^5/ml in 1 ml by CD40L and IL4 for 5 days in a 24-well plate, and the levels of 105 cytokines in the cell culture supernatant were measured by the R&D Systems Human XL cytokine antibody array as per manufacturer's instructions. The signals were measured by a fluorescence-based photometric read-out in the Li—COR Odyssey Fluorescent imaging system, and the spots quantified by Fiji software.\nTo investigate the modulation of B lymphocyte cytokine release by B2, primary human B lymphocytes isolated from fresh buffy coat were stimulated by CD40L and IL4 for […] and the levels of 105 cytokines in the cell culture supernatant were measured by the R&D Systems Human XL cytokine array and a fluorescence-based photometric read-out."}, "primary human B cells [2]": {"system": "primary human B cells", "test": "B lymphocyte IgE production (frequency of IgE+ B lymphocytes by FACS)", "description": "B2 was applied at 3 different concentrations, from left to right: 50, 20 and 10 μM. Average of >10 experiments is shown.\nB lymphocyte IgE production: B lymphocyte IgE production was measured in line with that previously described by Audzevich et al. (2013). Briefly, primary human B cells isolated by the MACSxpress Buffy Coat Pan B Cell Isolation Kit (Miltenyi Biotec) from buffy coat were stimulated for 6 days by recombinant hCD40L (100 μg/ml) and IL-4 (50 ng/ml) at a cell density of 5×10^4 cells/ml. The frequency of IgE+B lymphocytes was determined by FACS at day 6 using anti CD19 and anti IgE antibodies.\nTo investigate inhibition of B lymphocyte IgE production by B2, the frequency of IgE+B lymphocytes was determined by FACS at day 6 of primary human B cell cultures isolated from fresh buffy coat and stimulated by CD40L and IL4."}, "primary human B cells [3]": {"system": "primary human B cells", "test": "B lymphocyte plasmablast development (CD38+/CD19low and CD138+ by FACS)", "conditions": "5 days; FIG. 4 (20 and 10 μM)", "description": "The effect of two concentrations (from right to left: 20 and 10 μM) of B2 is shown in each plot in comparison to control (far left). Each symbol represents one experiment.\nB lymphocyte plasmablast development: For human B lymphocyte plasmablast development, primary human B cells were isolated from buffy coat using the MACSxpress Buffy Coat Pan B Cell Isolation Kit (Miltenyi Biotec) as per manufacturer's instructions. The cells were cultured in RPMI in the presence of human transferrin (20 μg/ml), IL-21 (100 ng/ml), recombinant hCD40L (100 μg/ml), anti-HA (50 μg/ml), at a cell density of 5×10^4 cells/ml. Plasmablast formation after 5 days was measured by FACS using two sets of markers: CD38+/CD19low and CD138+ for two stages of plasmablast development.\nTo investigate the inhibition of B lymphocyte plasmablast development by B2, primary human B cells, isolated from buffy coat, were cultured in the presence of CD40, IL21, anti-IgM, and plasmablast formation measured by FACS using two sets of markers: CD38+/CD19low (FIG. 4, upper plot) and CD138+(FIG. 4, lower plot) for two stages of plasmablast development."}, "[4]": {"system": "human primary neutrophils", "test": "Neutrophil NETosis (PMA or pyocyanin triggered, extracellular DNA, Sytox Green)", "conditions": "3 hours (FIG. 3)", "description": "The effect of 3 different concentrations (from left to right for each treatment: 100, 50 and 20 μM) of B2 is shown as % reduction compared to untreated control; average of 3 experiments.\nNeutrophil NETosis: Neutrophil production of extracellular traps, NETosis, was measured on human primary neutrophils, isolated from fresh blood samples as described above or by Pancoll gradient centrifugation. Neutrophils in RPMI at 4×10^6 cells/ml were triggered to undergo NETosis in wells of a 96-well plate at a total cell number of 2×10^5 cells per well. The cells were treated for 3 hours with either the […] phorbol myristate acetate (100 nM PMA) or the bacterial product pyocyanin (at 10 μM). Extracellular DNA was measured by fluorometry using the dye Sytox™ Green and/or by fluorescence microscopy.\nTo investigate the effect of B2 on neutrophil NETosis, human primary neutrophils, isolated from fresh blood samples, were triggered to undergo NETosis (the expulsion of DNA in the environment) by treatment for 3 hours with either the […] phorbol myristate acetate (PMA) or the bacterial product pyocyanin. Extracellular DNA was measured by photometry using the dye Sytox™ Green."}},
  "data": [
    {"smiles": "Cc1onc(-c2ccccc2Cl)c1C(=O)Nc1nc2ccc([N+](=O)[O-])cc2s1", "note": "[B2, 3-(2-chlorophenyl)-5-methyl-N-(6-nitrobenzo[d]thiazol-2-yl)isoxazole-4-carboxamide]", "values": [
      {"measurement": "B cell cytokine release profile", "setting": "[1]", "value": "reducing specific pro-inflammatory cytokines"},
      {"measurement": "toxicity in B lymphocyte culture", "setting": "primary human B cells [2]; 50 μM B2, day 6", "value": "some toxicity was observed"},
      {"measurement": "IgE production by primary human peripheral blood B lymphocytes", "setting": "primary human B cells [2]; CD40L and IL4, day 6, FIG. 5 (50, 20, 10 μM)", "value": "inhibits IgE production"},
      {"measurement": "toxicity in B lymphocyte culture", "setting": "primary human B cells [2]; lower concentrations than 50 μM (20 and 10 μM), day 6", "value": "not observed"},
      {"measurement": "human B cell plasmablast development", "setting": "primary human B cells [3]", "value": "inhibition of human B cell plasmablast development"},
      {"measurement": "neutrophil NETosis", "setting": "[4]", "value": "substantially reduced"}
    ]}
  ]
}
